Assay results as given in ChEMBL document CHEMBL1955733, “Optimization of 5-pyridazin-3-one phenoxypropylamines as potent, selective histamine H₃ receptor antagonists with potent cognition enhancing activity” (J Med Chem, 2012).
≈ marks a conversion by molar mass, not a printed value. Values belong to the molecule of their own block, whether it stands above or below them. Calls of active or inactive are those of the source. No cut-off for these calls is given here.

Experiments:
[1] = Clearance in Sprague-Dawley rat at 1 mg/kg, iv and 5 mg/kg, po; format: ADME, organism-based; conditions: in vivo
[2] = Half life in Sprague-Dawley rat at 1 mg/kg, iv and 5 mg/kg, po; format: ADME, organism-based; conditions: in vivo
[3] = target: Histamine H3 receptor (Rattus norvegicus, UniProt Q9QYN8); assay: Displacement of [3H]NAMH from rat cloned […] expressed in CHO cells; format: cell-based
[4] = target: Histamine H3 receptor (Homo sapiens, UniProt Q9Y5N1); assay: Displacement of [3H]NAMH from human cloned […] expressed in CHO cells; format: cell-based
[5] = Oral bioavailability in Sprague-Dawley rat at 5 mg/kg; format: ADME, organism-based; conditions: in vivo
[6] = Ratio of drug level in brain to plasma in Sprague-Dawley rat at 10 mg/kg, ip after 1 hr; format: ADME, organism-based; set-up: dose 10 mg/kg, route intraperitoneal; conditions: brain and plasma, read-out: BPR
[7] = Oral bioavailability in Sprague-Dawley rat at 10 mg/kg; format: ADME, organism-based; conditions: in vivo
[8] = system: Rattus norvegicus; assay: Cognitive effect in Sprague-Dawley rat social recognition model assessed as enhancement of short-term memory at 0.01 to 0.1 mg/kg, po measured after 120 mins; format: functional, organism-based
[9] = system: Mus musculus; assay: Toxicity in mouse assessed as changes in behavioral and physiologic state up to 300 mg/kg, po by Irwin test; format: organism-based; set-up: dose 300 mg/kg, route oral; conditions: in vivo
[10] = system: Salmonella typhimurium; assay: Mutagenic activity in Salmonella Typhimurium by Ames test; format: toxicity, organism-based; conditions: salmonella enterica subsp. enterica serovar typhimurium
[11] = Half life in Beagle dog at 1 mg/kg, iv and 3 mg/kg, po; format: ADME, organism-based, Canis lupus familiaris; conditions: in vivo
[12] = Half life in human; format: ADME, organism-based; conditions: in vivo
[13] = target: T1, Cytochrome P450 1A2 (Homo sapiens, UniProt P05177); assay: Inhibition of CYP1A2; format: ADME
T1 sequence (P05177 whole entry): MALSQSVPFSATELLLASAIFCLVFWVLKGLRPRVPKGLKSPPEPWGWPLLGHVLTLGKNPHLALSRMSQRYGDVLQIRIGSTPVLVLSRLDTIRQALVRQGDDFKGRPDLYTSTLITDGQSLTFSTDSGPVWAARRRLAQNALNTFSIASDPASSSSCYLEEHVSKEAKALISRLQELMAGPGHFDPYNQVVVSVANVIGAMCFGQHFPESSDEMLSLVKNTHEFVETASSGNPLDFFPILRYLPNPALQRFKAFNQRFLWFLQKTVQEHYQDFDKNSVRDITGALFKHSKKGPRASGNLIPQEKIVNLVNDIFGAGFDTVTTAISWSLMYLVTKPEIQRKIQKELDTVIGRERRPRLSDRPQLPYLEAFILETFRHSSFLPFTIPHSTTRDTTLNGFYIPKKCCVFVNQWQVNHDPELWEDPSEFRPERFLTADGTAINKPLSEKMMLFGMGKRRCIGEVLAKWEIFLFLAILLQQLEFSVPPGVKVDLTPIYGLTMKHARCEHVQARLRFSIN

[14] = target: Cytochrome P450 2C9 (Homo sapiens, UniProt P11712); assay: Inhibition of CYP2C9; format: ADME
[15] = target: Cytochrome P450 2C19 (Homo sapiens, UniProt P33261); assay: Inhibition of CYP2C19; format: ADME
[16] = target: Cytochrome P450 2D6 (Homo sapiens, UniProt P10635); assay: Inhibition of CYP2D6; format: ADME
[17] = target: Cytochrome P450 3A4 (Homo sapiens, UniProt P08684); assay: Inhibition of CYP3A4; format: ADME
[18] = Apparent permeability in human Caco2 cells; format: ADME, cell-based; conditions: Caco-2
[19] = Solubility of the compound in water at pH 2; format: physicochemical
[20] = Solubility of the compound in water at pH 7.4; format: physicochemical
[21] = Plasma protein binding in Sprague-Dawley rat; format: ADME, cell-free; conditions: read-out: PPB (converted)
[22] = Plasma protein binding in Beagle dog; format: ADME, cell-free, Canis lupus familiaris; conditions: read-out: PPB (converted)
[23] = Plasma protein binding in human; format: ADME, cell-free; conditions: read-out: PPB (converted)
[24] = Fraction unbound in Sprague-Dawley rat brain homogenate; format: ADME, tissue-based
[25] = Half life in Sprague-Dawley rat at 1 mg/kg, iv; format: ADME, organism-based; set-up: dose 1 mg/kg, route intravenous; conditions: in vivo
[26] = Half life in Beagle dog at 1 mg/kg, iv; format: ADME, organism-based, Canis lupus familiaris; set-up: dose 1 mg/kg, route intravenous; conditions: in vivo
[27] = Half life in cynomolgus monkey at 1 mg/kg, iv; format: ADME, organism-based, Macaca fascicularis; set-up: dose 1 mg/kg, route intravenous; conditions: in vivo
[28] = Volume of distribution in Sprague-Dawley rat at 1 mg/kg, iv and 10 mg/kg, po; format: ADME, organism-based; conditions: in vivo
[29] = Volume of distribution in Beagle dog at 1 mg/kg, iv and 3 mg/kg, po; format: ADME, organism-based, Canis lupus familiaris; conditions: in vivo
[30] = Volume of distribution in cynomolgus monkey at 1 mg/kg, iv and 3 mg/kg, po; format: ADME, organism-based, Macaca fascicularis; conditions: in vivo
[31] = Clearance in Sprague-Dawley rat at 1 mg/kg, iv and 10 mg/kg, po; format: ADME, organism-based; conditions: in vivo
[32] = Clearance in Beagle dog at 1 mg/kg, iv and 3 mg/kg, po; format: ADME, organism-based, Canis lupus familiaris; conditions: in vivo
[33] = Clearance in cynomolgus monkey at 1 mg/kg, iv and 3 mg/kg, po; format: ADME, organism-based, Macaca fascicularis; conditions: in vivo
[34] = AUC in Sprague-Dawley rat at 10 mg/kg, po; format: ADME, organism-based; set-up: dose 10 mg/kg, route oral; conditions: plasma
[35] = AUC in Beagle dog at 3 mg/kg, po; format: ADME, organism-based, Canis lupus familiaris; set-up: dose 3 mg/kg, route oral; conditions: plasma
[36] = AUC in cynomolgus monkey at 3 mg/kg, po; format: ADME, organism-based, Macaca fascicularis; set-up: dose 3 mg/kg, route oral; conditions: plasma
[37] = Cmax in Sprague-Dawley rat at 1 mg/kg, iv and 10 mg/kg, po; format: ADME, organism-based; conditions: in vivo
[38] = Cmax in Beagle dog at 1 mg/kg, iv and 3 mg/kg, po; format: ADME, organism-based, Canis lupus familiaris; conditions: in vivo
[39] = Cmax in cynomolgus monkey at 1 mg/kg, iv and 3 mg/kg, po; format: ADME, organism-based, Macaca fascicularis; conditions: in vivo
[40] = Half life in Sprague-Dawley rat at 1 mg/kg, iv and 10 mg/kg, po; format: ADME, organism-based; conditions: in vivo
[41] = Half life in cynomolgus monkey at 1 mg/kg, iv and 3 mg/kg, po; format: ADME, organism-based, Macaca fascicularis; conditions: in vivo
[42] = Oral bioavailability in Beagle dog at 3 mg/kg; format: ADME, organism-based, Canis lupus familiaris; conditions: in vivo
[43] = Oral bioavailability in cynomolgus monkey at 3 mg/kg; format: ADME, organism-based, Macaca fascicularis; conditions: in vivo
[44] = system: Rattus norvegicus; assay: Inhibition of RAMH-induced dispogenia in po dosed Long Evans rat measured for 30 mins; format: functional

Histamine H3 receptor (Rattus norvegicus, UniProt Q9QYN8), sequence (Q9QYN8 whole entry): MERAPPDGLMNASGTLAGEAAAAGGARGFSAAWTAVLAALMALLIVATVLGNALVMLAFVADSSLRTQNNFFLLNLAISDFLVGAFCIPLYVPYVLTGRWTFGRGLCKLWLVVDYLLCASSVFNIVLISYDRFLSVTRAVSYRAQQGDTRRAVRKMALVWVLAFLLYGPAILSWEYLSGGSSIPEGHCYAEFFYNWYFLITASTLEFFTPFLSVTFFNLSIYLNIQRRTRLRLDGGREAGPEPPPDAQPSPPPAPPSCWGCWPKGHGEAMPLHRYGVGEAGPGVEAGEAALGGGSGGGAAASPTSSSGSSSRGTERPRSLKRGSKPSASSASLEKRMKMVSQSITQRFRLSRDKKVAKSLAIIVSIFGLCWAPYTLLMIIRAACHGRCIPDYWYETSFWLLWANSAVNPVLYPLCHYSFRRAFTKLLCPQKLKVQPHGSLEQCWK
Histamine H3 receptor (Homo sapiens, UniProt Q9Y5N1), sequence (Q9Y5N1 whole entry): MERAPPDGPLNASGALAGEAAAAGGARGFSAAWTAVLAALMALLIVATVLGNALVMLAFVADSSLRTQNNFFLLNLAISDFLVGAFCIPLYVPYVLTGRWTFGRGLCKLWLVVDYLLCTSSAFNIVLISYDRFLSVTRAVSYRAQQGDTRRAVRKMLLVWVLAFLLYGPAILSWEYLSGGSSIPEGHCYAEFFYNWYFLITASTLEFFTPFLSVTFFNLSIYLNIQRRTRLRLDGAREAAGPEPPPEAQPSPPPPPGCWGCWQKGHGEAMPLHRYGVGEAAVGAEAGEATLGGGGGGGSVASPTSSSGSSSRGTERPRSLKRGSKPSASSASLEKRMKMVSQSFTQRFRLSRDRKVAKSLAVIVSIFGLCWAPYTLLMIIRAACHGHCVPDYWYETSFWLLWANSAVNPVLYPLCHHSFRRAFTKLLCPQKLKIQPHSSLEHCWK
Cytochrome P450 2D6, sequence (P10635 whole entry): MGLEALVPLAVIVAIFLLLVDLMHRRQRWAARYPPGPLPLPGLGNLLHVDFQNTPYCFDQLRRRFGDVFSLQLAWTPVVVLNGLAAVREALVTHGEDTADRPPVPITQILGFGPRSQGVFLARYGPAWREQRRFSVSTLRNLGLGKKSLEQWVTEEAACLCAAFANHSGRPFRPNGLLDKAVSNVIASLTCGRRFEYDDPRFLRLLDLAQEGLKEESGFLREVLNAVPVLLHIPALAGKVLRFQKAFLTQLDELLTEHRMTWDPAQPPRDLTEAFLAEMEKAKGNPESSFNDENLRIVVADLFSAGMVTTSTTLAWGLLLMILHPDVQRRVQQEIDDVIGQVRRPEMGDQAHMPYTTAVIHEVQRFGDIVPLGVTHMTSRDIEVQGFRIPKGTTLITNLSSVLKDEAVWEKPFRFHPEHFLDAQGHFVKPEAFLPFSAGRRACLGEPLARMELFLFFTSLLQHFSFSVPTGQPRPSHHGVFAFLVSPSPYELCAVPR
Cytochrome P450 2C9, sequence (P11712 whole entry): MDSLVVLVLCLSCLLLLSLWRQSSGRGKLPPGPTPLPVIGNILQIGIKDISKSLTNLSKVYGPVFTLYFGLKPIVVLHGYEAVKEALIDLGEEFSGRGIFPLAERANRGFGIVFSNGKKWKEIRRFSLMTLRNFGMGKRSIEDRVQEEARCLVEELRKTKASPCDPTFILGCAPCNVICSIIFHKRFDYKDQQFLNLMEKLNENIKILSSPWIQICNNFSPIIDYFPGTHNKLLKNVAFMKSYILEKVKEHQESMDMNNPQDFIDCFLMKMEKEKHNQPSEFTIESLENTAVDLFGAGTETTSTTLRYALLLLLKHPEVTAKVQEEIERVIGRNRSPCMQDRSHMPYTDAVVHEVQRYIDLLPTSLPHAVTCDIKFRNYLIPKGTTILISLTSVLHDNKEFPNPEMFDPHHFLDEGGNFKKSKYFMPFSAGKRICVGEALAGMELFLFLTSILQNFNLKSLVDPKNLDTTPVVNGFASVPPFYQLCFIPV
Cytochrome P450 2C19, sequence (P33261 whole entry): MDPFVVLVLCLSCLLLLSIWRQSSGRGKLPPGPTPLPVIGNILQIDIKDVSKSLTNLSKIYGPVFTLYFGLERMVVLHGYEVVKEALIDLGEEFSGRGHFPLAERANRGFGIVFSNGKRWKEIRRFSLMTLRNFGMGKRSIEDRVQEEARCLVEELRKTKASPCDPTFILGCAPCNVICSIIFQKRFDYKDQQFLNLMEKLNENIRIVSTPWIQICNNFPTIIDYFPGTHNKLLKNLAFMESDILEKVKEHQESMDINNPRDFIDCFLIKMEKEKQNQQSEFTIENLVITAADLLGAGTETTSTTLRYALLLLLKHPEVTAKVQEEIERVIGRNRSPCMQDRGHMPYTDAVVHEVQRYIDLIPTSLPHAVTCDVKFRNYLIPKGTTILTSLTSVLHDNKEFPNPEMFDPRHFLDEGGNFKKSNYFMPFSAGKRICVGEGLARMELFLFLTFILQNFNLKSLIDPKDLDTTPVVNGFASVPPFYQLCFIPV
Cytochrome P450 3A4, sequence (P08684 whole entry): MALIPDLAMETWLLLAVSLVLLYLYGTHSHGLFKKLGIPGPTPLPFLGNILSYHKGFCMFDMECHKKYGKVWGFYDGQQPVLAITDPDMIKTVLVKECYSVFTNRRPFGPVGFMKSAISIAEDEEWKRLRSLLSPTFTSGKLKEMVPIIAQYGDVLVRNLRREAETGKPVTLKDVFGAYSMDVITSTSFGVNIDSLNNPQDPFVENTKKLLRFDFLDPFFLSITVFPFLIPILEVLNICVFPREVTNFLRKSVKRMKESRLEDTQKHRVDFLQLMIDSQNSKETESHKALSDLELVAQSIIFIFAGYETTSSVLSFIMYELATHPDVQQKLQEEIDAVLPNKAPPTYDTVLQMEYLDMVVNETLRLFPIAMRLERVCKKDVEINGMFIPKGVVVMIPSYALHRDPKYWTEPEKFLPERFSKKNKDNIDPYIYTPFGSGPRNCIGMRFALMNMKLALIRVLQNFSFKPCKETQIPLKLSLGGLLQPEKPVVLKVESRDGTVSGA

- clearance [1]: 67 mL/min/kg
- half-life [2]: 1.2 h
- Ki [3]: 6.5 nM
- Ki [4]: 2 nM
- bioavailability [5]: 53%
- Kp at 1 h [6]: 1.7
Compound: Cc1nn(C)c(=O)cc1-c1ccc(OCCCN2CCC[C@H]2C)cc1

- clearance [1]: 75 mL/min/kg
- half-life [2]: 0.6 h
- Ki [3]: 30 nM
- Ki [4]: 13 nM
- bioavailability [5]: 40%
- Kp at 1 h [6]: 5.3
Compound: Cn1ncc(-c2ccc(OCCCN3CCCCC3)cc2)cc1=O

- clearance [1]: 13 mL/min/kg
- half-life [2]: 1.3 h
- Ki [3]: 5 nM
- Ki [4]: 1.7 nM
- bioavailability [5]: 15%
- Kp at 1 h [6]: 0.7
Compound: Cc1nn(-c2ccccn2)c(=O)cc1-c1ccc(OCCCN2CCC[C@H]2C)cc1

- clearance [1]: 11 mL/min/kg
- half-life [2]: 1.6 h
- Ki [3]: 16 nM
- Ki [4]: 7.8 nM
- bioavailability [5]: 26%
- Kp at 1 h [6]: 1.6
Compound: O=c1cc(-c2ccc(OCCCN3CCCCC3)cc2)cnn1-c1ccccn1

- Ki [3]: 22 nM
- Ki [4]: 8.1 nM
Compound: Cn1ncc(-c2ccc(OCCCN3CCCCCC3)cc2)cc1=O

- Ki [3]: 8.5 nM
- bioavailability [7]: 83%
- Kp at 1 h [6]: 2.6
Compound: C[C@@H]1CCCN1CCCOc1ccc(-c2ccc(=O)[nH]n2)cc1 [IRDABISANT]

- clearance [1]: 30 mL/min/kg
- half-life [2]: 0.8 h
- Ki [3]: 23 nM
- Ki [4]: 7.9 nM
- bioavailability [5]: 28%
- Kp at 1 h [6]: 1.3
Compound: Cc1n[nH]c(=O)cc1-c1ccc(OCCCN2CCCCC2)cc1

- clearance [1]: 19 mL/min/kg
- half-life [2]: 1.7 h
- bioavailability [7]: 78%
- Kp at 1 h [6]: 1.1
- half-life [11]: 0.8 h
- half-life [12]: > 0.667 h
- IC50 [13]: > 30000 nM
- IC50 [14]: > 30000 nM
- IC50 [15]: > 30000 nM
- IC50 [16]: > 30000 nM
- IC50 [17]: > 30000 nM
- Papp [18]: 13.7 ×10⁻⁶ cm/s
- solubility [19]: 1400 µg/mL (≈ 3590 µM)
- solubility [20]: 900 µg/mL (≈ 2300 µM)
- fraction unbound [21]: 0.55
- fraction unbound [22]: 0.68
- fraction unbound [23]: 0.56
- fraction unbound [24]: 0.39
- half-life [25]: 1.7 h
- half-life [26]: 3.6 h
- half-life [27]: 3.9 h
- Vd [28]: 3 L/kg
- Vd [29]: 5.9 L/kg
- Vd [30]: 7.1 L/kg
- clearance [31]: 20 mL/min/kg
- clearance [32]: 19 mL/min/kg
- clearance [33]: 21 mL/min/kg
- AUC [34]: 6800 ng·h/mL
- AUC [35]: 2400 ng·h/mL
- AUC [36]: 2080 ng·h/mL
- Cmax [37]: 898 ng/mL
- Cmax [38]: 417 ng/mL
- Cmax [39]: 326 ng/mL
- half-life [40]: 4.5 h
- half-life [41]: 6.5 h
- bioavailability [42]: 92%
- bioavailability [43]: 96%
Compound: C[C@@H]1CCCN1CCCOc1ccc(-c2cnn(-c3ccccn3)c(=O)c2)cc1
- Activity [8]: Active
- Activity [9]: Non-toxic
- Activity [10]: Toxic
- inhibition [44]: Dose-dependent effect
- ED50 ([44]; 0.5 h): 0.07 mg/kg

- clearance [1]: 7 mL/min/kg
- half-life [2]: 1.4 h
- Ki [3]: 17 nM
- Ki [4]: 3 nM
- bioavailability [5]: 20%
- Kp at 1 h [6]: 0.5
Compound: Cc1cccnc1-n1nc(C)c(-c2ccc(OCCCN3CCC[C@H]3C)cc2)cc1=O

- clearance [1]: 25 mL/min/kg
- half-life [2]: 1.8 h
- Ki [3]: 12 nM
- Ki [4]: 5.3 nM
- bioavailability [5]: 28%
- Kp at 1 h [6]: 1.8
Compound: O=c1cc(-c2ccc(OCCCN3CCCCCC3)cc2)cnn1-c1ccccn1
